From patent US20260137706A1, “METHODS OF TREATING INFLAMMATORY DISEASES” (INTERLINE THERAPEUTICS, INC., priority 2023, published 2026) come the findings set out here.

For test [1], the target named is T1, GST-RIPK2 fusion protein (human RIPK2, amino acids 1-310) (Homo sapiens, UniProt O43353).
T1 construct: made in house; host or cells: baculovirus infected Sf9 cells
The experiment in a line: RIPK2 binding competition assay (TR-FRET, Tracer 199 displacement). Conditions: 10 nM Tracer 199, 1 nM GST-RIPK2, read-out: RIPK2 IC50. The procedure, abridged: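 IC50 derived from the TR-FRET emission ratio (665/620 nm, 337 nm excitation), normalized with no-inhibitor and no-enzyme controls. Incubation 45 min at 22 °C, pH 7.5 Tris buffer, with final 10 nM tracer, 1 nM Sf9-expressed GST-RIPK2 fragment (aa 1-310) and 0.5 nM Tb-labelled anti-GST.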
For orientation: TR-FRET usually uses a lanthanide donor and a delayed reading to cut background.

Test [2] addresses T2, binding of His-XIAP(BIR2)-avi fusion protein to GST-RIPK2 fusion protein (RIPK2/XIAP) (Homo sapiens, UniProt O43353).
T2 construct: made in house; host or cells: baculovirus infected Sf9 cells
The experiment in a line: RIPK2-XIAP binding competition PPI assay (TR-FRET). Particulars: RIPK2/XIAP binding competition PPI assay; for Emax: Amax, read-out: PPI Amax bin; for IC50: read-out: PPI IC50 bin. In short, it runs like this:
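Compounds (in DMSO, 100-fold stock) incubated 120 min at 23 °C with 1 nM GST-RIPK2 (aa 1-310) and 25 nM His-XIAP(BIR2 aa 152-231)-avi, plus anti-His-XL665 and anti-GST-Tb, in pH 7.5 Tris buffer. Read-out: 665/520 nm emission ratio. Normalized to no-inhibitor (0%) and 50 nM GSK583 (−100%); Amax binned A–D.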

Test [3] concerns NF-κB pathway (SEAP) in THP1-Dual cells. The experiment in a line: THP-1 Dual cell SEAP assay (L18-MDP stimulated). It counts as cell-based. Particulars: Homo sapiens, THP1-Dual, read-out: NF-κB THP1 IC50 bin. The procedure, abridged:
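IC50 values derive from non-linear regression of % inhibition, calculated against DMSO/L18-MDP-treated wells after media-only subtraction. NF-κB SEAP activity was read at OD 620-655 nm (QUANTI-Blue, 2 h, 37 °C) from supernatants of THP1-Dual cells. Cells had been compound-treated 30 min before overnight (20-24 h) stimulation with 10 ng/mL final L18-MDP.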

T1 sequence (O43353 1-310): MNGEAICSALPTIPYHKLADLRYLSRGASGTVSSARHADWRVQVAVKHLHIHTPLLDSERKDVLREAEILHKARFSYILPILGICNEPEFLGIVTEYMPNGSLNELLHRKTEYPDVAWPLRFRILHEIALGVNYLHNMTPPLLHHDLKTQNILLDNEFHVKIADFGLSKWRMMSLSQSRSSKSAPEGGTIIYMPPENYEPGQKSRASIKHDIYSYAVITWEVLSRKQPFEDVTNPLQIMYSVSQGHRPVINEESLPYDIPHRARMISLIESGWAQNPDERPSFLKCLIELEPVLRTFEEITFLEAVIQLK
T2 sequence (O43353 1-310 limits assumed): as the sequence (O43353 1-310) above

As for `CC(C)(C)S(=O)(=O)c1cn2c(-c3cc(F)c(N)nc3F)cnc2cc1OCC1(CO)CC1` [Example 56, (1-(((3-(6-amino-2,5-difluoropyridin-3-yl)-6-(tert-butylsulfonyl)imidazo[1,2-a]pyridin-7-yl)oxy)methyl)cyclopropyl)methanol], the IC50 (usually the point on the concentration scale where inhibition reaches its midpoint) fell in the range of 0.0025 to 0.02 µM in test [1], 0.0025 to 0.02 µM in test [2] and 0.05 to 0.25 µM in test [3]. Also, the Emax in test [2] is > 80%.
For the compound `COc1cc2ncc(-c3cnc4cc(N)ccc4c3)n2cc1S(=O)(=O)C(C)(C)C` [Example 92, 3-(6-(tert-butylsulfonyl)-7-methoxyimidazo[1,2-a]pyridin-3-yl)quinolin-7-amine], the figures for the half-maximal inhibitory concentration (IC50) in test [1], in test [2] and in test [3] were > 0.02 µM, > 0.02 µM and > 1 µM, respectively. Also, in test [2], the Emax was in the range of 30 to 55%.
As to `CC(C)(C)S(=O)(=O)c1cn2c(-c3cc(F)c(N)nc3F)cnc2cc1OC1CCN(CCO)C1` (stereo not drawn) [Example 43, 2-(3-((3-(6-amino-2,5-difluoropyridin-3-yl)-6-(tert-butylsulfonyl)imidazo[1,2-a]pyridin-7-yl)oxy)pyrrolidin-1-yl)ethan-1-ol], the IC50 in test [1] was 0.0025 to 0.02 µM; in test [2], 0.0025 to 0.02 µM; in test [3] it was > 1 µM. Besides, the Emax in test [2] is > 80%.
On to `COc1cc2ncc(-c3cc(F)c(N)nc3F)n2cc1S(=O)(=O)C1(C)CC1` [Example 68, 3,6-difluoro-5-(7-methoxy-6-((1-methylcyclopropyl)sulfonyl)imidazo[1,2-a]pyridin-3-yl)pyridin-2-amine], for which the figures for the concentration for half-maximal inhibition (IC50) in test [1], in test [2] and in test [3] were > 0.02 µM, > 0.02 µM and > 1 µM, respectively. The Emax in test [2] is > 80%.
Turning to `CC(C)(C)S(=O)(=O)c1cn2c(-c3cc(F)c(N)nc3F)cnc2cc1C(=O)NCCO` [Example 44, 3-(6-amino-2,5-difluoropyridin-3-yl)-6-(tert-butylsulfonyl)-N-(2-hydroxyethyl)imidazo[1,2-a]pyridine-7-carboxamide], the IC50 in test [1] was > 0.02 µM; in test [2], > 0.02 µM; in test [3], > 1 µM. Also, in test [2], the Emax was > 80%.
Take `COc1cc2ncc(-c3cccc(NS(=O)(=O)C4COC4)c3)n2cc1S(=O)(=O)C(C)(C)C` [Example 150, N-(3-(6-(tert-butylsulfonyl)-7-methoxyimidazo[1,2-a]pyridin-3-yl)phenyl)oxetane-3-sulfonamide]: the half-maximal inhibitory concentration (IC50) is 0.0025 to 0.02 µM in test [1], 0.0025 to 0.02 µM in test [2] and > 1 µM in test [3]. Further, the Emax in test [2] was > 80%.
Consider `COc1cc2ncc(-c3cc(C)c4nn(C)cc4c3)n2cc1S(=O)(=O)C(C)(C)C` [Example 97, 5-(6-(tert-butylsulfonyl)-7-methoxyimidazo[1,2-a]pyridin-3-yl)-2,7-dimethyl-2H-indazole], for which the IC50 was 0.0025 to 0.02 µM in test [1], > 0.02 µM in test [2] and > 1 µM in test [3]. The Emax in test [2] was < 30%.
In the same order, the values of `COc1cc2ncc(-c3cc(F)c(OC)c(NS(=O)(=O)C4CCC4)c3)n2cc1S(=O)(=O)C(C)(C)C` [Example 145, N-(5-(6-(tert-butylsulfonyl)-7-methoxyimidazo[1,2-a]pyridin-3-yl)-3-fluoro-2-methoxyphenyl)cyclobutanesulfonamide] are < 0.001 µM, < 0.001 µM, < 0.05 µM and > 80%.
In the case of `CC(C)(C)S(=O)(=O)c1cn2c(-c3cc(Cl)c(N)nc3F)cnc2cc1OCC(F)(F)CN` [Example 243, 5-(7-(3-amino-2,2-difluoropropoxy)-6-(tert-butylsulfonyl)imidazo [1,2-a]pyridin-3-yl)-3-chloro-6-fluoropyridin-2-amine], the IC50 in test [1] fell in the range of 0.001 to 0.0025 µM; in test [2], 0.001 to 0.0025 µM; in test [3] it was 0.05 to 0.25 µM. Further, in test [2], the Emax is > 80%.
For `CC(C)(C)S(=O)(=O)c1cn2c(-c3cnc4[nH]ccc4n3)cnc2cc1OCCO` [Example 277, 2-((6-(tert-butylsulfonyl)-3-(5H-pyrrolo[2,3-b]pyrazin-2-yl)imidazo[1,2-a]pyridin-7-yl)oxy)ethan-1-ol], the figures for the IC50 in test [1], in test [2] and in test [3] were 0.0025 to 0.02 µM, > 0.02 µM and 0.25 to 1 µM, respectively. In test [2], the Emax is < 30%.
The corresponding values for `COc1cc2ncc(-c3ccc4c(c3)OCC4O)n2cc1S(=O)(=O)C(C)(C)C` (stereo not drawn) [Example 86, 6-(6-(tert-butylsulfonyl)-7-methoxyimidazo[1,2-a]pyridin-3-yl)-2,3-dihydrobenzofuran-3-ol] are > 0.02 µM, > 0.02 µM, > 1 µM and < 30%.
The corresponding values for `CC(C)(C)S(=O)(=O)c1cn2c(-c3cc4cc[nH]c4nc3F)cnc2cc1OCCO` [Example 52, 2-((6-(tert-butylsulfonyl)-3-(6-fluoro-1H-pyrrolo[2,3-b]pyridin-5-yl)imidazo[1,2-a]pyridin-7-yl)oxy)ethan-1-ol] are < 0.001 µM, < 0.001 µM, < 0.05 µM and > 80%.
In the same order, the values of `COc1cc2ncc(-c3cnn(-c4ccccc4)c3F)n2cc1S(=O)(=O)C(C)(C)C` [Example 88, 6-(tert-butylsulfonyl)-3-(5-fluoro-1-phenyl-1H-pyrazol-4-yl)-7-methoxyimidazo[1,2-a]pyridine] are > 0.02 µM, > 0.02 µM, > 1 µM and < 30%.
As to `COc1cc2ncc(-c3cnc4nc(N)ccc4c3)n2cc1S(=O)(=O)C(C)(C)C` [Example 91, 6-(6-(tert-butylsulfonyl)-7-methoxyimidazo[1,2-a]pyridin-3-yl)-1,8-naphthyridin-2-amine], the values for the IC50 in test [1], in test [2] and in test [3] were > 0.02 µM, > 0.02 µM and > 1 µM, respectively. The Emax in test [2] fell in the range of 30 to 55%.
Regarding `CC1(COc2cc3ncc(-c4cc(F)c(N)nc4F)n3cc2S(=O)(=O)C(C)(C)C)COC1` [Example 26, 5-(6-(tert-butylsulfonyl)-7-((3-methyloxetan-3-yl)methoxy)imidazo[1,2-a]pyridin-3-yl)-3,6-difluoropyridin-2-amine], the IC50 in test [1] was 0.001 to 0.0025 µM; in test [2], 0.0025 to 0.02 µM; in test [3] it was 0.05 to 0.25 µM. In addition, the Emax in test [2] is > 80%.
The corresponding values for `COc1cc2ncc(-c3ccc4c(c3)c(C)nn4C)n2cc1S(=O)(=O)C(C)(C)C` [Example 101, 5-(6-(tert-butylsulfonyl)-7-methoxyimidazo[1,2-a]pyridin-3-yl)-1,3-dimethyl-1H-indazole] are 0.0025 to 0.02 µM, > 0.02 µM, > 1 µM and < 30%.
In the same order, the values of `COc1cc2ncc(-c3ccc4cnn(C)c4c3)n2cc1S(=O)(=O)C(C)(C)C` [Example 106, 6-(6-(tert-butylsulfonyl)-7-methoxyimidazo[1,2-a]pyridin-3-yl)-1-methyl-1H-indazole] are > 0.02 µM, > 0.02 µM, > 1 µM and < 30%.
Take `OCCCNc1cc(-c2cnn3ccc(C(F)(F)F)cc23)cc(F)n1` [Example 6, 3-((6-fluoro-4-(5-(trifluoromethyl)pyrazolo[1,5-a]pyridin-3-yl)pyridin-2-yl)amino)propan-1-ol]: the values for the IC50 in test [1], in test [2] and in test [3] were 0.0025 to 0.02 µM, > 0.02 µM and 0.05 to 0.25 µM, respectively. For the same compound, in test [2], the Emax is < 30%.
The corresponding values for `COc1cc2nc(N)c(-c3cc(F)c(N)nc3F)n2cc1S(=O)(=O)C(C)(C)C` [Example 40, 3-(6-amino-2,5-difluoropyridin-3-yl)-6-(tert-butylsulfonyl)-7-methoxyimidazo[1,2-a]pyridin-2-amine] are > 0.02 µM, > 0.02 µM, > 1 µM and 55 to 80%.
In the same order, the values of `[2H]C([2H])([2H])Oc1c(F)cc(-c2cnc3cc(OC)c(S(=O)(=O)C(C)(C)C)cn23)cc1NS(=O)(=O)CC1COC1` [Example 133, N-(5-(6-(tert-butylsulfonyl)-7-methoxyimidazo[1,2-a]pyridin-3-yl)-3-fluoro-2-(methoxy-d3)phenyl)-1-(oxetan-3-yl)methanesulfonamide] are < 0.001 µM, < 0.001 µM, < 0.05 µM and 55 to 80%.
In the same order, the values of `COc1cc2ncc(-c3cc(F)c(OC)c(NS(=O)(=O)c4ccn(C)n4)c3)n2cc1S(=O)(=O)C(C)(C)C` [Example 134, N-(5-(6-(tert-butylsulfonyl)-7-methoxyimidazo[1,2-a]pyridin-3-yl)-3-fluoro-2-methoxyphenyl)-1-methyl-1H-pyrazole-3-sulfonamide] are 0.001 to 0.0025 µM, < 0.001 µM, < 0.05 µM and > 80%.
